Reference: ChEMBL document CHEMBL5236618, “Discovery and Optimization of Potent, Selective, and Brain-Penetrant 1-Heteroaryl-1H-Indazole LRRK2 Kinase Inhibitors for the Treatment of Parkinson's Disease” (J Med Chem, 2022)

Legend:
[1] = Mean residence time in rat at 0.1 mg/kg, iv administered as cassette dose measured upto 24 hrs by LC-MS/MS method; assay type: ADME, organism-based; conditions: in vivo
[2] = Unbound clearance in rat at 0.1 mg/kg, iv administered as cassette dose measured upto 24 hrs by LC-MS/MS method; assay type: ADME, organism-based; conditions: in vivo
[3] = Clearance in rat at 0.1 mg/kg, iv administered as cassette dose measured upto 24 hrs by LC-MS/MS method; assay type: ADME, organism-based; conditions: in vivo
[4] = Unbound brain-to-plasma concentration ratio in rat; assay type: ADME, cell-free; conditions: read-out: K(p,uu,brain)
[5] = Mean residence time in rat at 10 mg/kg, po or 2 mg/kg, iv measured upto 24 hrs by LC-MS/MS method; assay type: ADME, organism-based; conditions: in vivo
[6] = Mean residence time in dog at 3 mg/kg, po or 0.5 mg/kg, iv measured upto 24 hrs by LC-MS/MS method; assay type: ADME, organism-based, Canis lupus familiaris; conditions: in vivo
[7] = Unbound clearance in rat at 10 mg/kg, po or 2 mg/kg, iv measured upto 24 hrs by LC-MS/MS method; assay type: ADME, organism-based; conditions: in vivo
[8] = Clearance in rhesus monkey at 2 mg/kg, iv measured upto 24 hrs by LC-MS/MS method; assay type: ADME, organism-based, Macaca mulatta; conditions: in vivo
[9] = Unbound brain-to-plasma concentration ratio in non human primates; assay type: ADME, cell-free; conditions: read-out: K(p,uu,brain)
[10] = Mean residence time in rhesus monkey at 2 mg/kg, iv measured upto 24 hrs by LC-MS/MS method; assay type: ADME, organism-based, Macaca mulatta; conditions: in vivo
[11] = Oral bioavailability in rat at 10 mg/kg measured upto 24 hrs by LC-MS/MS method; assay type: ADME, organism-based; conditions: in vivo
[12] = Unbound clearance in dog at 3 mg/kg, po or 0.5 mg/kg, iv measured upto 24 hrs by LC-MS/MS method; assay type: ADME, organism-based, Canis lupus familiaris; conditions: in vivo
[13] = Oral bioavailability in dog at 3 mg/kg measured upto 24 hrs by LC-MS/MS method; assay type: ADME, organism-based, Canis lupus familiaris; conditions: in vivo
[14] = Unbound clearance in rhesus monkey at 2 mg/kg, iv measured upto 24 hrs by LC-MS/MS method; assay type: ADME, organism-based, Macaca mulatta; conditions: in vivo

| MRT [1] [h] | CL free [2] [mL/min/kg] | clearance [3] [mL/min/kg] | Kp uu [4] | MRT [5] [h] | MRT [6] [h] | CL free [7] [mL/min/kg] | clearance [8] [mL/min/kg] | Kp uu [9] | MRT [10] [h] | bioavailability [11] [%] | CL free [12] [mL/min/kg] | bioavailability [13] [%] | CL free [14] [mL/min/kg] | SMILES |
| --- | --- | --- | --- | --- | --- | --- | --- | --- | --- | --- | --- | --- | --- | --- |
| 0.5 | 5850 | 98 |  |  |  |  |  |  |  |  |  |  |  | C[C@@H]1CN(c2cc(-c3ncc4ccc(-c5cnn(C)c5)cn34)ccn2)C[C@H](C)O1 |
|  |  |  | 0.5 | 2 | 7 | 12700 | 16 | 0.4 | 1.5 | 38 | 3200 | 100 | 3400 | C[C@@H]1CN(c2cc(-c3n[nH]c4ccc(OC5(C)CC5)cc34)ncn2)C[C@H](C)O1 [MLi-2] |
